Laboratory results as given in patent US10730886B2, “Compound having effect of inhibiting platelet aggregation and salt thereof, and composition for preventing or treating thrombotic diseases, containing same” (SHIN POONG PHARMACEUTICAL CO., LTD., priority 2015, dated 2020).

Experiments:
[1] = test system: human liver cells (HepG2); experiment: Cytotoxicity in human liver cells HepG2 (WST-1); type: cell-based; conditions: HepG2, 250 μM, 18 hours
Protocol: 5-3. Evaluation of Cytotoxicity of Candidate Substances Using Human Liver Cells
Experiments were conducted to evaluate cytotoxicity in human liver cells (HepG2). HepG2 cells, which are human liver carcinoma cell lines, were cultured in DMEM (Dulbecco's minimum essential medium) supplemented with 10% FBS (fetal bovine serum) and 1% Penicillin/Streptomycin at 37° C. and 5% CO2. The cells were cultured in a 48 well plate at 4×10^4 cells/well for 24 hours and then used in the experiments. The HepG2 cells were treated with the candidate substances (250 μM) for 18 hours, and then the medium was removed and WST-1 was added, followed by shading for 3 hours for reaction. After 3 hours, the supernatant was taken and absorbance was measured at 450 nm. Cell viability was calculated by comparing the absorbance measured after adding WST-1 to HepG2 cells not treated with the candidate substances. Acetaminophen (40 mM) was used as a control.

[2] = test system: thrombin-induced platelet aggregation, Human PRP; experiment: Thrombin-induced platelet aggregation in human PRP (lumi-aggregometer); type: cell-based; conditions: thrombin 0.6-0.8 U/ml;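 note: aggregation recorded for 5 min after thrombin addition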
Protocol: (§1) To investigate whether the candidate substance has inhibition selectivity for shear-stress-induced platelet aggregation, which is by a physical stimulus, […] experiment was conducted by activating platelets with physiological agonists—i.e., thrombin, collagen and ADP—to study the inhibitory effect of the candidate substance.
(§2) Human PRP (598.8 μl) was treated with 1.2 μl of the candidate substance per concentration (25, 100, 250 μM) and reacted at 37° C. for 3 minutes using a thermomixer. Then, PRP (495 μl) was put in the aggregometer cuvette and preincubated for 1 minute, followed by treatment with platelet aggregation-inducing reagent, thrombin (0.6-0.8 U/ml), collagen (2-5 μg/ml), or ADP (adenosine diphosphate, 15-20 μM) at the minimum concentration causing maximum aggregation. The degree of aggregation of the platelets was measured by a turbidity change using a lumi-aggregometer (Chrono-Log Co., USA). The turbidity of the PRP was considered as 0%, and the turbidity of the PPP was considered as 100%. During the measurement, the reaction mixture was continuously stirred at 1,000 rpm with a silicone-coated magnetic stir bar.

[3] = test system: carotid artery shear stress model; experiment: Carotid artery shear stress model, amount of thrombus; type: in vivo, Sprague-Dawley rats; conditions: rat; for Amount of thrombus (mg, Mean ± SEM): 25 mg/kg oral, twice a day for 3 days after operation; for shear stress-induced thrombogenesis compared with the control group: oral
Protocol: Vehicle (0.5% methylcellulose), clopidogrel (8 mg/kg), aspirin (50 mg/kg) or a candidate substance was orally administered to male Sprague-Dawley rats (250 to 300 g). 2 hours after administration, the rats were anesthetized by ketamine/rompun (ketamine/xylazine) cocktail 0.1 ml/100 g. Except for the normal control group, the right cervical skin of the experimental animals was incised to expose the common carotid artery. A surgical tube with a length of 1 mm and an inside diameter of 0.58 mm was inserted into the exposed carotid artery and tied with a single thread. The exposed site and the operation site were treated with an anti-adhesion agent, and then sutured for the animals to recover. After the surgery, vehicle, clopidogrel, aspirin or a candidate substance was orally administered to the rats twice a day for 3 days. On the fourth day, 2 hours after the final administration, urethane (100 mg/300 μl/100 g) was administered intraperitoneally to the rats to induce anesthesia, and the operation site was opened to separate a total of 1 cm of the blood vessel, 5 mm above and 5 mm below the surgical tube. The separated blood vessel was perfused with 0.2 ml of 0.9% saline at 0.3 ml/min to remove the remaining blood, and then maintained in 1 ml of protein lysis buffer (NaOH 2 g, Na2CO3 0.1 g in 500 ml D.W). After collected, the blood vessel thrombus was double-boiled in boiling water together with the protein lysis buffer. 200 μl of the reaction solution (10 ml bicinchoninic acid solution+200 μl 4% aqueous solution of copper sulfate) was added to 10 μl of the heated thrombus, and the mixture was reacted at 37° C. for 30 minutes and quantified with an ELISA reader (562 nm).

[4] = test system: ADP-induced platelet aggregation, Human PRP; experiment: ADP-induced platelet aggregation in human PRP (lumi-aggregometer); type: cell-based; conditions: ADP 15-20 μM
Protocol: as §1, §2

[5] = test system: human vascular endothelial cells (EA.hy926); experiment: Cytotoxicity in EA.hy926 cell line (MTT assay); type: cell-based; conditions: 24 hours
Protocol: 5-1. Evaluation of Cytotoxicity of Candidate Substances Using EA.hy926 Cell Line
Experiments were conducted to determine the cytotoxicity of candidate substances in human vascular endothelial cells (EA.hy926). EA.hy926 was passaged in DMEM (Dulbecco's […]) supplemented with 10% fetal bovine serum (FBS) at 5% CO2/37° C. The cells were cultured in a 96 well plate at 1×10^4 cells/well for 48 hours, washed twice with DMEM and then cultured for 24 hours. Candidate substances were prepared at final concentrations of 25 and 100 μM, applied to the wells at 200 μl per well and cultured for 24 hours. MTT assay was used to measure the absorbance at 570 nm after colorization in violet.

plasma [6] = experiment: Plasma coagulation time, Activated Partial Thromboplastin Time (aPTT); type: biochemical; conditions: plasma treated 3 minutes
Protocol: (§3) In order to separate plasma, blood was collected with 3.2% sodium citrate as an anticoagulant. Whole blood was centrifuged at 2000 g for 20 minutes to obtain plasma. After treating the plasma with the test substances for 3 minutes, plasma coagulation time was measured. For plasma coagulation time, Activated Partial Thromboplastin Time (aPTT) and Prothrombin Time (PT) were measured using BBL® Fibrometer (Becton Dickinson, Cockeysville, Md.). For measurement of aPTT, the plasma was treated with aPTT reagents in fibrometer cup and reacted at 37° C. for 3 min. After the reaction, CaCl2 was added and blood coagulation time was measured immediately. For the measurement of PT, PT reagent was added to warmed plasma, and blood coagulation time was measured immediately. DTI, known to prolong plasma coagulation time, was used as a control.

[7] = test system: collagen-induced platelet aggregation, Human PRP; experiment: Collagen-induced platelet aggregation in human PRP (lumi-aggregometer); type: cell-based; conditions: collagen 2-5 μg/ml
Protocol: as §1, §2

plasma [8] = experiment: Plasma coagulation time, Prothrombin Time (PT); type: biochemical; conditions: plasma treated 3 minutes
Protocol: as §3

O=C(c1cc(O)ccc1O)N1CCc2sccc2C1 [Example 20, (6,7-Dihydrothieno[3,2-c]pyridin-5(4H)-yl)(2,5-dihydroxyphenyl)methanone]
Cell vaibility (%) [1]: 87.7 ± 2.6%
Degree of platelet aggregation (%, Mean ± SEM) ([2]; 25 μM): 84.0 ± 3.2%
Degree of platelet aggregation (%, Mean ± SEM) ([2]; 100 μM): 82.3 ± 3.7%
Degree of platelet aggregation (%, Mean ± SEM) ([2]; 250 μM): 82.0 ± 15.0%
Amount of thrombus (mg, Mean ± SEM) [3]: 0.068 ± 0.005 mg
shear stress-induced thrombogenesis compared with the control group [3]: significantly, remarkably inhibited
Degree of platelet aggregation (%, Mean ± SEM) ([4]; compound 25 μM): 73.0 ± 2.0%
Degree of platelet aggregation (%, Mean ± SEM) ([4]; compound 100 μM): 69.0 ± 1.0%
Degree of platelet aggregation (%, Mean ± SEM) ([4]; compound 250 μM): 66.5 ± 2.5%
Cell viability (%) ([5]; EA.hy926, 25 μM): 99.7 ± 3.2%
Cell viability (%) ([5]; EA.hy926, 100 μM): 97.7 ± 2.2%
plasma coagulation time - aPTT, Time (plasma [6]; 25 μM): 24.9 ± 1.0 s
plasma coagulation time - aPTT, Time (plasma [6]; 100 μM): 25.3 ± 0.6 s
plasma coagulation time - aPTT, Time (plasma [6]; 250 μM): 25.8 ± 0.9 s
Degree of platelet aggregation (%, Mean ± SEM) ([7]; 25 μM): 82.3 ± 5.8%
Degree of platelet aggregation (%, Mean ± SEM) ([7]; 100 μM): 81.3 ± 3.5%
Degree of platelet aggregation (%, Mean ± SEM) ([7]; 250 μM): 87.7 ± 2.0%
plasma coagulation time - PT, Time (plasma [8]; 25 μM): 10.8 ± 0.4 s
plasma coagulation time - PT, Time (plasma [8]; 100 μM): 10.2 ± 0.4 s
plasma coagulation time - PT, Time (plasma [8]; 250 μM): 11.2 ± 0.4 s

O=C(c1cc(O)ccc1O)N1CCC(c2noc3ccc(F)cc23)CC1 [Example 23, (2,5-Dihydroxyphenyl)(4-(5-fluorobenzo[d]isoxazol-3-yl)piperidin-1-yl)methanone]
Cell vaibility (%) [1]: 82.7 ± 5.5%
Degree of platelet aggregation (%, Mean ± SEM) ([2]; 25 μM): 96.0 ± 4.0%
Degree of platelet aggregation (%, Mean ± SEM) ([2]; 100 μM): 88.5 ± 6.5%
Degree of platelet aggregation (%, Mean ± SEM) ([2]; 250 μM): 93.5 ± 1.5%
Amount of thrombus (mg, Mean ± SEM) [3]: 0.071 ± 0.006 mg
shear stress-induced thrombogenesis compared with the control group [3]: significantly, remarkably inhibited
Degree of platelet aggregation (%, Mean ± SEM) ([4]; compound 25 μM): 73.5 ± 1.5%
Degree of platelet aggregation (%, Mean ± SEM) ([4]; compound 100 μM): 66.0 ± 1.0%
Degree of platelet aggregation (%, Mean ± SEM) ([4]; compound 250 μM): 65.0 ± 0.0%
Cell viability (%) ([5]; EA.hy926, 25 μM): 104.3 ± 1.8%
Cell viability (%) ([5]; EA.hy926, 100 μM): 99.9 ± 1.9%
plasma coagulation time - aPTT, Time (plasma [6]; 25 μM): 26.2 ± 0.2 s
plasma coagulation time - aPTT, Time (plasma [6]; 100 μM): 29.5 ± 1.2 s
plasma coagulation time - aPTT, Time (plasma [6]; 250 μM): 26.1 ± 0.2 s
Degree of platelet aggregation (%, Mean ± SEM) ([7]; 25 μM): 82.0 ± 5.0%
Degree of platelet aggregation (%, Mean ± SEM) ([7]; 100 μM): 84.5 ± 4.5%
Degree of platelet aggregation (%, Mean ± SEM) ([7]; 250 μM): 83.5 ± 2.5%
plasma coagulation time - PT, Time (plasma [8]; 25 μM): 10.3 ± 0.1 s
plasma coagulation time - PT, Time (plasma [8]; 100 μM): 10.7 ± 0.2 s
plasma coagulation time - PT, Time (plasma [8]; 250 μM): 10.8 ± 0.3 s
